This is an account of results in US10925874B2, “Substituted pyrazolopyrimidines as glucocerebrosidase activators” (The United States of America, as Represented by the …, priority 2010, dated 2021).

SMILES strings stand for the structures.

For one assay, the target named is T1, N370S glucocerebrosidase from human spleen homogenate (Homo sapiens, UniProt P04062, N409S).
T1 construct: N370S glucocerebrosidase from human spleen homogenate as the enzyme preparation; from tissue; host or cells: human spleen homogenate
T1 sequence (P04062 40-536 N409S): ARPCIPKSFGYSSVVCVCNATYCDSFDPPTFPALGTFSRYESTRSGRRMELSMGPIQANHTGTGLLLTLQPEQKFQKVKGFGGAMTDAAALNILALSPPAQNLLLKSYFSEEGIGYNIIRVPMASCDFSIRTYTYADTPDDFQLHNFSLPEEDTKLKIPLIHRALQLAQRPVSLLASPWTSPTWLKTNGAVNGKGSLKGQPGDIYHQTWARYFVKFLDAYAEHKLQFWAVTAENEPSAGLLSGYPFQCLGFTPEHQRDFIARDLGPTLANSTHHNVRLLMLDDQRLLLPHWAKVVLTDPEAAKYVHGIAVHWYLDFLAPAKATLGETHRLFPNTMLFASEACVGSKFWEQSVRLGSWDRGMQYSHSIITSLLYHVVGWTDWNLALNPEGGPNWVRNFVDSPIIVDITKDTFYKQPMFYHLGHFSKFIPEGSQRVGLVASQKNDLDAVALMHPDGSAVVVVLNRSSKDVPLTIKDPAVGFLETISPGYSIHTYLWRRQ
As to the kind of experiment: qHTS fluorogenic enzyme assay for activators of N370S glucocerebrosidase (4-methylumbelliferyl-beta-D-glucopyranoside substrate). It is filed as biochemical. As to conditions: pH 5.0, 37° C. 40 min. From the text:
qHTS Assay for Inhibitors and Activators of N370S glucocerebrosidase as a Potential Chaperone Treatment of Gaucher Disease: Primary Screen Confirmation
This is a fluorogenic enzyme assay with 4-methylumbelliferyl-beta-D-glucopyranoside as the substrate and N370S glucocerebrosidase from human spleen homogenate as the enzyme preparation. Upon the hydrolysis of this fluorogenic substrate, the resulting product, […] which can be detected by a standard fluorescence plate reader. Data were normalized to the controls for basal activity (without enzyme) and 100% activity (with enzyme). The AC50 values were determined from concentration-response data modeled with the standard Hill equation.
Human spleen homogenate is prepared as follows by homogenizing spleen with assay buffer containing 50 mM citric acid (titrated with potassium phosphate to pH 5.0), 100 mM potassium chloride, 10 mM sodium chloride, 1 mM magnesium chloride, 0.01% Tween-20. The protein concentration of the human spleen homogenate is approximated 1.35 ug/ul.
The assay is performed in 1536 well plates according to the following protocol. (1) 2 ul spleen homogenate ([…] final) is added to each well. (2) 23 nL test compound in DMSO solution is added to each well. The final concentration of compound in the test well is 0.5 nM to 58 uM. (3) 2 ul of substrate (1 mM final) are added to each well. (4) Incubate assay plates at 37° C. for 40 min. (5) Add 2 ul stop solution (1M NaOH and 1M Glycine mixture, pH 10) to each well. (6) Detect the assay plate in a ViewLux plate reader (PerkinElmer) using 365 nm excitation with emission at 440 nm.
(In general: Quantitative high-throughput screening tests each substance at several concentrations.)
As a reminder, the AC50 is the concentration at which the activity in the assay is half-maximal. A high value points to weaker potency. In turn, `Cc1cc(C)n2ncc(C(=O)NC3CCC(C(C)(C)C)CC3)c2n1` (stereo not drawn) [NCGC00188754-01, N-(4-tert-butylcyclohexyl)-5,7-dimethylpyrazolo[1,5-a]pyrimidine-3-carboxamide] registered an AC50 of 25.9 µM.

`C=C1C=C(C(F)F)n2ncc(C(=O)NC(C)CC)c2N1` (stereo not drawn) [NCGC00182145-01, N-sec-butyl-7-(difluoromethyl)-5-methylene-4,5-dihydropyrazolo[1,5-a]pyrimidine-3-carboxamide] came in with an AC50 of 31.6 µM.

On to `C=C1C=C(C(F)F)n2ncc(C(=O)NCCc3ccccc3OC)c2N1` [NCGC00182147-01, 7-(difluoromethyl)-N-(2-methoxyphenethyl)-5-methylene-4,5-dihydropyrazolo[1,5-a]pyrimidine-3-carboxamide], for which the AC50 came out at 25.1 µM.

The compound `Cc1ccc(NC(=O)c2cnn3c(C)cc(C)nc23)c(F)c1` [NCGC00188779-01, N-(2-fluoro-4-methylphenyl)-5,7-dimethylpyrazolo[1,5-a]pyrimidine-3-carboxamide] displayed an AC50 of 11.6 µM.

For the compound `Cc1cc(C)n2ncc(C(=O)Nc3cc(F)cc(F)c3)c2n1` [NCGC00187967-01, N-(3,5-difluorophenyl)-5,7-dimethylpyrazolo[1,5-a]pyrimidine-3-carboxamide], the AC50 worked out at 6.18 µM.

Take `C=C1C=C(C(F)F)n2ncc(C(=O)NCc3ccccc3Cl)c2N1` [NCGC00182148-01, N-(2-chlorobenzyl)-7-(difluoromethyl)-5-methylene-4,5-dihydropyrazolo[1,5-a]pyrimidine-3-carboxamide]: the AC50 was 14.1 µM.

For the compound `O=C(Nc1ccccc1Br)c1cnn2c1NC(=C1CC1)C=C2C(F)F` [NCGC00182188-01, N-(2-bromophenyl)-5-cyclopropylidene-7-(difluoromethyl)-4,5-dihydropyrazolo[1,5-a]pyrimidine-3-carboxamide], the AC50 was 12.6 µM.

Compound `C=C1C=C(C(F)F)n2ncc(C(=O)Nc3ccccc3OCC)c2N1` [NCGC00182160-01, 7-(difluoromethyl)-N-(2-ethoxyphenyl)-5-methylene-4,5-dihydropyrazolo[1,5-a]pyrimidine-3-carboxamide] returned a half-maximal activity concentration (AC50) of 2.51 µM.

Consider `Cc1cc(C)n2ncc(C(=O)Nc3ccccc3)c2n1` [NCGC00187975-01, 5,7-dimethyl-N-phenylpyrazolo[1,5-a]pyrimidine-3-carboxamide], for which the half-maximal activity concentration (AC50) amounted to 8.19 µM.

`Cc1ccc(NC(=O)c2cnn3c2NC(=C2CC2)C=C3C(F)F)cc1C` [NCGC00182133-01, 5-cyclopropylidene-7-(difluoromethyl)-N-(3,4-dimethylphenyl)-4,5-dihydropyrazolo[1,5-a]pyrimidine-3-carboxamide] came in with an AC50 of 3.16 µM.

Take `COc1ccc(NC(=O)c2cnn3c(C)cc(C)nc23)c(C)c1` [NCGC00188774-01, N-(4-methoxy-2-methylphenyl)-5,7-dimethylpyrazolo[1,5-a]pyrimidine-3-carboxamide]: the AC50 amounted to 51.7 µM.

`Cc1cc(C)n2ncc(C(=O)Nc3ccc(C(F)(F)F)cc3)c2n1` [NCGC00188787-01, 5,7-dimethyl-N-(4-(trifluoromethyl)phenyl)pyrazolo[1,5-a]pyrimidine-3-carboxamide]: half-maximal activity (AC50) was put at 1.46 µM.

`Cc1cccc(NC(=O)c2cnn3c2NC(=C2CC2)C=C3C(F)F)n1` [NCGC00182139-01, 5-cyclopropylidene-7-(difluoromethyl)-N-(6-methylpyridin-2-yl)-4,5-dihydropyrazolo[1,5-a]pyrimidine-3-carboxamide] had an AC50 of 12.6 µM.

With `Cc1cc(C)n2ncc(C(=O)Nc3cccc(C(F)(F)F)c3)c2n1` [NCGC00188786-01, 5,7-dimethyl-N-(3-(trifluoromethyl)phenyl)pyrazolo[1,5-a]pyrimidine-3-carboxamide], half-maximal activity (AC50) was put at 41.1 µM.

`CC(=O)c1cccc(NC(=O)c2cnn3c(C)cc(C)nc23)c1` [NCGC00188785-01, N-(3-acetylphenyl)-5,7-dimethylpyrazolo[1,5-a]pyrimidine-3-carboxamide]: the AC50 is 32.6 µM.

The compound `CCc1ccc(NC(=O)c2cnn3c(C)cc(-c4ccccc4)nc23)cc1` [NCGC00229714-01, N-(4-ethylphenyl)-7-methyl-5-phenylpyrazolo[1,5-a]pyrimidine-3-carboxamide] showed an AC50 of 13 µM.

With `Cc1cc(C)n2ncc(C(=O)NCC(C)C)c2n1` [NCGC00187978-01, N-isobutyl-5,7-dimethylpyrazolo[,15-a]pyrimidine-3-carboxamide], half-maximal activity (AC50) was put at 32.6 µM.

For the compound `COc1ccc(NC(=O)c2cnn3c(C)cc(C)nc23)cc1` [NCGC00188768-01, N-(4-methoxyphenyl)-5,7-dimethylpyrazolo[1,5-a]pyrimidine-3-carboxamide], the AC50 amounted to 8.19 µM.

Turning to `Cc1ccc(NC(=O)c2cnn3c(C)cc(C)nc23)cc1` [NCGC00188772-01, 5,7-dimethyl-N-p-tolylpyrazolo[1,5-a]pyrimidine-3-carboxamide], the AC50 turned out to be 1.63 µM.

In turn, `O=C(NC1CCCCC1)c1cnn2c1NC(=C1CC1)C=C2C(F)F` [NCGC00182175-01, N-cyclohexyl-5-cyclopropylidene-7-(difluoromethyl)-4,5-dihydropyrazolo[1,5-a]pyrimidine-3-carboxamide] yielded an AC50 of 12.6 µM.

Turning to `Cc1cc(C)n2ncc(C(=O)NCc3ccco3)c2n1` [NCGC00188759-01, N-(furan-2-ylmethyl)-5,7-dimethylpyrazolo[1,5-a]pyrimidine-3-carboxamide], half-maximal activity (AC50) was put at 51.7 µM.

With `C#Cc1ccc(NC(=O)c2cnn3c(C)cc(C)nc23)cc1` [NCGC00188758-01, N-(4-ethynylphenyl)-5,7-dimethylpyrazolo[1,5-a]pyrimidine-3-carboxamide], the AC50 amounted to 0.366 µM.

The compound `C=C1C=C(C)n2ncc(C(=O)Nc3ccc(F)cc3F)c2N1` [NCGC00182166-01, N-(2,4-difluorophenyl)-7-methyl-5-methylene-4,5-dihydropyrazolo[1,5-a]pyrimidine-3-carboxamide] had an AC50 of 3.98 µM.

`CCc1ccc(NC(=O)c2cnn3c(-c4ccccc4)cc(C)nc23)cc1` [NCGC00229717-01, N-(4-ethylphenyl)-5-methyl-7-phenylpyrazolo[1,5-a]pyrimidine-3-carboxamide]: half-maximal activity (AC50) was put at 9.19 µM.

In turn, `C=C1C=C(C(F)F)n2ncc(C(=O)N3CCN(c4ccccc4)CC3)c2N1` [NCGC00182152-01, (7-(difluoromethyl)-5-methylene-4,5-dihydropyrazolo[1,5-a]pyrimidin-3-yl)(4-phenylpiperazin-1-yl)methanone] returned an AC50 of 31.6 µM.

The next assay deals with T2, GCase (Homo sapiens, UniProt P04062, N409S).
T2 construct: evaluated in a N370S patient derived fibroblast for chaperone activity; endogenous in cells; host or cells: N370S Gaucher patient-derived fibroblasts
T2 sequence (P04062 40-536 N409S): T1 sequence (P04062 40-536 N409S)
As to the kind of experiment: Chaperone activity in N370S patient derived fibroblast (GCase/LAMP/DAPI staining). The settings on record: NGC00188758-1 1 μM and 5 μM, isofagomine 1 μM, overlay of anti GCase R386 and LAMP stains. It is filed as cell-based. The text has this: GCase was visualized with red stain (anti GCase R386 antibody), lysosome with green (LAMP), and nucleus with blue (DAPI). […] All laser settings were held constant across all of the fields imaged.
As for `OC[C@H]1CNC[C@@H](O)[C@@H]1O` [isofagomine, reference compound], the “GCase activity in the lysosome relative to vehicle control” value is on record as “significantly increased GCase activity in the lysosome”.

As to `C#Cc1ccc(NC(=O)c2cnn3c(C)cc(C)nc23)cc1` [NCGC00188758-01, N-(4-ethynylphenyl)-5,7-dimethylpyrazolo[1,5-a]pyrimidine-3-carboxamide], the “GCase activity in the lysosome relative to vehicle control” value is on record as “significantly increased GCase activity in the lysosome”.
